US20110275569A1, “PROTEASES TARGETING AGENTS” (CONSIGLIO NAZIONALE DELLE RICERCHE, priority 2008, published 2011)
Read-outs that look alike come from different tables or passages of the source.

Columns and labels:
APEH in Caco-2 cells = assay: APEH activity in Caco-2 cells treated with peptides; type: cell-based, human; settings: 48 h, dose-dependent decrease
Experimental: (§1) The proteasome down-regulation via APEH inhibition has been investigated. On the basis of the hypothesis that APEH can be used as a target to indirectly control/modulate proteasome functions in tumoral cells, an in vitro approach using the SsCEI 2, SsCEI 3 and SsCEI 4 peptides in the Caco-2 (human colon carcinoma) cell line has been carried out. To this end, differentiated Caco-2 cells were treated with peptides or with a specific proteasome inhibitor (MG132), for 48 h. […] The results were compared to those obtained in the cell-free assays, where a purified proteasome fraction was used.

proteasome = assay: Cell-free proteasome assay with purified proteasome fraction; type: biochemical
Experimental: as §1

[1] = system: proteasome in Caco-2 (human colon carcinoma) cells; assay: Proteasome activity in Caco-2 cells treated with peptides for 48 h; type: cell-based; settings: for proteasomal activity in Caco-2 cells (in words): differentiated Caco-2 cells
Experimental: as §1

[2] = target: T1, porcine acylamino-acid-releasing enzyme (AARE or APEH) (Sus scrofa, UniProt P19205); assay: Inhibition of porcine acylamino-acid-releasing enzyme; type: biochemical; settings: for IC50: IC50 towards porcine acylamino-acid-releasing enzyme (AARE or APEH)
T1 sequence (P19205 1-732): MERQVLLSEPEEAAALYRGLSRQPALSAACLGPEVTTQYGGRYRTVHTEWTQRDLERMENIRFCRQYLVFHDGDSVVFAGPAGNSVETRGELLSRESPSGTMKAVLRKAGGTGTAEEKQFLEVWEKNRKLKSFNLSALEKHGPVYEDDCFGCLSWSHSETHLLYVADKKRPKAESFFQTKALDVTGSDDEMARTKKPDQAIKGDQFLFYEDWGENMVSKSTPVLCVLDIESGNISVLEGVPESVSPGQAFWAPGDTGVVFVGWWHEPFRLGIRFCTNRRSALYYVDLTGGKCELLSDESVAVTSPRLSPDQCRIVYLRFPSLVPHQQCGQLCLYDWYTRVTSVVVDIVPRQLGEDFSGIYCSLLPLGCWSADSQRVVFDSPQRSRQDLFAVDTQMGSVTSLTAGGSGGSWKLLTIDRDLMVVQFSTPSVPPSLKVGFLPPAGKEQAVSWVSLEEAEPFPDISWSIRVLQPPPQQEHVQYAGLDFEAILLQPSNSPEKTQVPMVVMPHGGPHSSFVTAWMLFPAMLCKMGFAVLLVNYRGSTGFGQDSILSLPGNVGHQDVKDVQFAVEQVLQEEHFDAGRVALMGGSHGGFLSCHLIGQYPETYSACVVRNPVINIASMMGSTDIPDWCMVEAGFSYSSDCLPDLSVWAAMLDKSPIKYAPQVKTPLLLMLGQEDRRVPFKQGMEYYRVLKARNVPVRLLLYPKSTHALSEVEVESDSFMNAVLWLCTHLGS
Experimental: The SsCEI 1 to 4 reported in the Example 1 were tested for ability to inhibit the activity of human acylamino-acid-releasing enzyme. Stock solutions (1 mM) of each lyophilized compounds were prepared in DMSO 100% and stored at 4° C. Inhibition effectiveness of each compound was determined by measuring enzyme activity both in the presence and absence of compounds. The activity of human acylamino-acid-releasing enzyme (AARE) was measured by using the chromogenic substrate N-acetyl-Ala-pNA (Bachem) (40 μM in DMSO 100%) as described above. […] Then, the substrate was added to the incubation mixture and the hydrolysis was performed for 20 min at 37° C. (FIG. 5). The data were fitted with the GraphPad Prism software. This analysis allowed the determination of IC50 values, which represent the concentrations at which the inhibition reached 50%. […] The IC50 values (See Table IV), obtained as average of 3-5 separate determinations, confirmed the utility of the compounds +of the present invention as effective AARE inhibitors.
The experiment described in example 7 has been performed using the porcine acylamino-acid-releasing enzyme. […] The efficiency of SsCEI 4 can be ascribed to the APEH preference for an alanine residue, with respect to the leucine, at the P1 site, assuming that the SsCEI-APEH association occurs in a substrate-like manner

caspase-3 = assay: Caspase-3 activity after peptide treatment of Caco-2 cells; type: cell-based, human
From the text: To elucidate the molecular mechanisms associated with the inhibition of the proteasome, the effects of treatments with the SsCEI 2 and SsCEI 4 peptides on the activation of caspases have been evaluated.

Caco-2 cells = assay: Cytotoxicity by lactate dehydrogenase (LDH) activity in cell-culture media; type: cell-based, human; settings: up to the highest concentration used (200 μM)

Row | Substance | residual APEH activity with respect to untreated cultures (APEH in Caco-2 cells) | proteasome activity in cell-free systems (proteasome) | residual proteasome activity with respect to untreated cultures ([1]; Caco-2 cells, dose-dependent decrease) | proteasomal activity in Caco-2 cells (in words) [1] | IC50 [2] | type of inhibition of porcine APEH ([2]; Lineweaver-Burk plot) | Ki ([2]; porcine APEH, Lineweaver-Burk plot, read-out: Ki APEH) | caspase-3 activity (caspase-3) | cytotoxic effects, LDH activity levels in cell-culture media (Caco-2 cells) | Ki [2]
1 | H-TILAEIKNINAD-NH2 [SsCEI 4, TILAEIKNINAD] | up to 45% | did not affect proteasome activity | up to 45% | markedly reduced proteasomal activity | 35 ± 0.8 µM | competitive inhibitor | 4 ± 0.8 µM | increased in a dose dependent manner | not associated with any cytotoxic effects | –
2 | H-TILLEIKNINAD-NH2 [SsCEI 2, TILLEIKNINAD] | – | – | – | markedly reduced proteasomal activity | – | – | – | – | not associated with any cytotoxic effects | –
3 | H-YAIDTILAEIKNINAD-NH2 [SsCEI 3, YAIDTILAEIKNINAD] | – | – | – | unable to affect proteasome | 20 ± 0.4 µM | – | – | – | – | 20 ± 0.4 µM
